{"source": "PubChem BioAssay AID1259411", "about": "(Chemical Carcinogenesis Research Information System (CCRIS), 2018)", "system": "rodent carcinogenicity bioassays, tumor incidence", "assay": "CCRIS carcinogenicity studies", "method_in_brief": "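NCI-built, expert-reviewed records of carcinogenicity and related test outcomes (mutagenicity, tumor promotion/inhibition) compiled from published and report sources, historical span 1985-2011, not updated.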", "note": "Calls of active or inactive are those of the source. How the calls were made is not given here."}
{"smiles": "Cc1c2ccccc2c(C)c2c1ccc1ccccc12", "values": [{"measurement": "carcinogen call", "setting": "Species: MOUSE, Strain/Sex: SWISS/MALE,FEMALE, Route: SUBCUTANEOUS, Dose: 30-40 UG IN 0.02 ML OF 1% AQ GEL, Tumor Site: Type of Lesion: LUNG, LYMPHATIC SYSTEM: MALIGNANT LYMPHOMA", "result": "active; positive"}, {"measurement": "carcinogen call", "setting": "Species: RAT, Strain/Sex: ALBINO/MALE,FEMALE, Route: SUBCUTANEOUS, Dose: 5 MG IN 0.5 ML OLIVE OIL ONCE, Tumor Site: Type of Lesion: INJECTION SITE: RHABDOMYOSARCOMA", "result": "active; positive"}, {"measurement": "carcinogen call", "setting": "Species: RAT, Strain/Sex: BIRMINGHAM/ MALE, FEMALE, Route: DERMAL, Dose: 0.5, 1.6% SOLN IN OLIVE OIL ONCE EVERY 2 WK, Tumor Site: Type of Lesion: INTEGUMENTARY SYSTEM (SKIN): SQUAMOUS PAPILLOMA, KERATOACANTHOMA, SQUAMOUS CELL CARCINOMA, MAMMARY GLAND", "result": "active; positive"}, {"measurement": "carcinogen call", "setting": "Species: RAT, Strain/Sex: F344/FEMALE, 3 WKS OF AGE, Route: GAVAGE, Dose: 50 MG/KG ONCE (STUDY DURATION: 36 WKS), Tumor Site: Type of Lesion: MAMMARY GLAND: CARCINOMA", "result": "20% tumor incidence; 0.23 carcinomas/rat; immature rats less susceptible"}, {"measurement": "carcinogen call", "setting": "Species: RAT, Strain/Sex: F344/FEMALE, 8 WKS OF AGE, Route: GAVAGE, Dose: 50 MG/KG ONCE (STUDY DURATION: 36 WKS), Tumor Site: Type of Lesion: MAMMARY GLAND: CARCINOMA", "result": "69% tumor incidence; 1.27 carcinomas/rat; mature rats more susceptible"}, {"measurement": "carcinogen call", "setting": "Species: RAT, Strain/Sex: OUTBRED/ MALE, FEMALE, Route: DERMAL, Dose: 0.5, 1.6% SOLN IN OLIVE OIL ONCE EVERY 2 WK, Tumor Site: Type of Lesion: INTEGUMENTARY SYSTEM (SKIN): SQUAMOUS PAPILLOMA, KERATOACANTHOMA, SQUAMOUS CELL CARCINOMA, MAMMARY GLAND", "result": "active; positive"}, {"measurement": "carcinogen call", "setting": "Species: RAT, Strain/Sex: SPRAGUE-DAWLEY/FEMALE, Route: GAVAGE, Dose: 10 MG IN 0.5 ML SESAME OIL ONCE, Tumor Site: Type of Lesion: MAMMARY GLAND", "result": "active; positive"}, {"measurement": "carcinogen call", "setting": "Species: RAT, Strain/Sex: SPRAGUE-DAWLEY/FEMALE, Route: GAVAGE, Dose: 20 MG IN 1 ML SESAME OIL ONCE, Tumor Site: Type of Lesion: MAMMARY GLAND: FIBROADENOMA, CARCINOMA", "result": "active; positive"}, {"measurement": "carcinogen call", "setting": "Species: RAT, Strain/Sex: SPRAGUE-DAWLEY/FEMALE, Route: INJECTION, Dose: 0, 0.25, 1 UMOL PER MAMMARY GLAND (STUDY DURATION: 24 WK), Dose: 0, 0.25, 1 UMOL PER MAMMARY GLAND (STUDY DURATION: 24 WK), Tumor Site: Type of Lesion: MAMMARY GLAND: TUMOR", "result": "active; positive"}, {"measurement": "carcinogen call", "setting": "Species: RAT, Strain/Sex: SPRAGUE-DAWLEY/FEMALE, Route: INTRAVENOUS, Dose: 5 MG IN 1 ML LIPID EMULSION ONCE, Tumor Site: Type of Lesion: MAMMARY GLAND", "result": "active; positive"}, {"measurement": "carcinogen call", "setting": "Species: RAT, Strain/Sex: SPRAGUE-DAWLEY/FEMALE, Route: ORAL, Dose: 10 MG IN SESAME OIL 3 TIMES AT 14 D INTERVALS, Tumor Site: Type of Lesion: MAMMARY GLAND: ADENOMA, ADENOCARCINOMA", "result": "active; positive"}, {"measurement": "carcinogen call", "setting": "Species: RAT, Strain/Sex: SPRAGUE-DAWLEY/FEMALE, Route: ORAL, Dose: 20 MG IN SESAME OIL ONCE, Tumor Site: Type of Lesion: MAMMARY GLAND: ADENOMA, FIBROADENOMA, CARCINOMA, ADENOCARCINOMA", "result": "active; positive"}, {"measurement": "carcinogen call", "setting": "Species: RAT, Strain/Sex: SPRAGUE-DAWLEY/FEMALE, Route: SUBCUTANEOUS, Dose: 0, 2 UMOL IN 0.25 ML TRIOCTANOIN INTO LEFT HIND LEG AT ABOUT 40 D OF AGE FOLLOWED BY SECOND DOSE 6 D LATER (STUDY DURATI, Tumor Site: Type of Lesion: INJECTION SITE: SARCOMA", "result": "active; positive"}, {"measurement": "carcinogen call", "setting": "Species: RAT, Strain/Sex: SPRAGUE-DAWLEY/FEMALE, Route: SUBCUTANEOUS, Dose: 0, 2 UMOL IN 0.25 ML TRIOCTANOIN ONCE INTO LEFT HIND LEG AT ABOUT 40 D OF AGE (STUDY DURATION: 16 MO), Tumor Site: Type of Lesion: INJECTION SITE: SARCOMA", "result": "active; positive"}, {"measurement": "carcinogen call", "setting": "Species: RAT, Strain/Sex: STRAIN-CB/FEMALE, Route: SUBCUTANEOUS, Dose: 0.25 ML OF 1% SOLN IN DMSO ONCE, Tumor Site: Type of Lesion: INJECTION SITE: SPINDLE CELL SARCOMA", "result": "active; positive"}, {"measurement": "carcinogen call", "setting": "Species: RAT, Strain/Sex: WISTAR/FEMALE, Route: GAVAGE, Dose: 0.4 ML OF 0.5% SUNFLOWER SEED OIL SOLN 2/WK FOR 4.5 MO (TOTAL DOSE: 68 MG), Tumor Site: Type of Lesion: HEMATOPOIETIC SYSTEM (LEUKEMIA)", "result": "active; positive"}, {"measurement": "carcinogen call", "setting": "Species: RAT, Strain/Sex: WISTAR/FEMALE, Route: INJECTION, Dose: 0, 0.05 ML OF A 1% SOLUTION IN ACETONE INJECTED INTO SUBMANDIBULAR SALIVARY GLANDS AFTER EXCISION OF A SMALL PORTION OF, Tumor Site: Type of Lesion: SALIVARY GLAND: ADENOCARCINOMA", "result": "active; positive"}, {"measurement": "carcinogen call", "setting": "Species: RAT, Strain/Sex: WISTAR/FEMALE, Route: INTRADUCTAL, Dose: 0, 1 MG IN 0.05 ML OF SESAME OIL INJECTED INTO MAIN MAMMARY DUCT ON THE 10TH PUERPERAL DAY (STUDY DURATION: 20 WK), Tumor Site: Type of Lesion: MAMMARY GLAND: DUCTAL CARCINOMA", "result": "active; positive"}, {"measurement": "carcinogen call", "setting": "Species: RAT, Strain/Sex: WISTAR/FEMALE, Route: ORAL, Dose: 10 MG IN SESAME OIL 3 TIMES AT 14 D INTERVALS, Tumor Site: Type of Lesion: MAMMARY GLAND: ADENOMA, ADENOCARCINOMA", "result": "active; positive"}, {"measurement": "carcinogen call", "setting": "Species: RAT, Strain/Sex: WISTAR/FURTH/FEMALE, Route: OVARIAN IMPLANTATION OF CARCINOGEN-COATED SUTURE AT 7 WKS OF AGE, Dose: 200 UG IN SUTURE ONCE (STUDY DURATION: 1 YR), Tumor Site: Type of Lesion: OVARY: ADENOCARCINOMA, 77%", "result": "active; positive"}, {"measurement": "carcinogen call", "setting": "Species: RAT, Strain/Sex: WISTAR/MALE, Route: INJECTION, Dose: 0, 0.05 ML OF A 1% SOLUTION IN ACETONE INJECTED INTO SUBMANDIBULAR SALIVARY GLANDS AFTER EXCISION OF A SMALL PORTION OF, Tumor Site: Type of Lesion: SALIVARY GLAND: FIBROSARCOMA", "result": "active; positive"}, {"measurement": "carcinogen call", "setting": "Species: RAT, Strain/Sex: ZUCKER/FEMALE, LEAN, Route: ORAL (GAVAGE), Dose: 65 MG/KG ONCE AT 50 D OF AGE (STUDY DURATION: 139 D), Tumor Site: Type of Lesion: MAMMARY: TUMOR 32%, LATENCY 86 D", "result": "active; positive; lean rats had longer latent period and lower tumor incidence than obes"}, {"measurement": "carcinogen call", "setting": "Species: RAT, Strain/Sex: ZUCKER/FEMALE, OBESE, Route: ORAL (GAVAGE), Dose: 65 MG/KG ONCE AT 50 D OF AGE (STUDY DURATION: 139 D), Tumor Site: Type of Lesion: MAMMARY: TUMOR 68%, LATENCY 49 D", "result": "active; positive; obese rats had higher tumor incidence and shorter latent period than l"}, {"measurement": "carcinogen call", "setting": "Species: Rat, Strain/Sex: Fischer 344/Female, Route: Direct application to ovary, Dose: 100 ug in sesame oil, once, study duration 5 months", "result": "inactive; negative"}, {"measurement": "carcinogen call", "setting": "Species: SHREW, Strain/Sex: JAPANESE/FEMALE, Route: INTRAPERITONEAL, Dose: 0, 1.25, 2.5 MG 1/WK FOR 4 WK (STUDY DURATION: 50 WK), Dose: 0, 1.25, 2.5 MG 1/WK FOR 4 WK (STUDY DURATION: 50 WK), Tumor Site: Type of Lesion: HEMATOPOIETIC SYSTEM: LEUKEMIA", "result": "active; positive"}, {"measurement": "carcinogen call", "setting": "Species: SHREW, Strain/Sex: JAPANESE/FEMALE, Route: INTRAPERITONEAL, Dose: 0, 1.25, 2.5 MG 1/WK FOR 8 WK (STUDY DURATION: 50 WK), Dose: 0, 1.25, 2.5 MG 1/WK FOR 8 WK (STUDY DURATION: 50 WK), Tumor Site: Type of Lesion: HEMATOPOIETIC SYSTEM: LEUKEMIA", "result": "active; positive"}, {"measurement": "carcinogen call", "setting": "Species: SHREW, Strain/Sex: JAPANESE/FEMALE, Route: SUBCUTANEOUS, Dose: 0, 1 MG INTO RIGHT INGUINAL SUBCUTANEOUS TISSUE OVER THE MAMMARY GLAND ONCE (STUDY DURATION: 50 WK), Tumor Site: Type of Lesion: INJECTION SITE: SARCOMA", "result": "active; positive"}]}
